Experimental data: US8436189B2, “Heterocyclic alkanol derivatives” (Bayer Intellectual Property GmbH, priority 2010, dated 2013)

Assays:
[1] = system: Blumeria graminis f sp. hordei; assay: Blumeria graminis test (barley)/protective; assay type: in vivo; details: protective spray, application rate 500 ppm, evaluation 7 days after inoculation, 0% = control, 100% = no infection
Protocol: Solvent: 49 parts by weight of N,N-dimethylacetamide Emulsifier: 1 part by weight of alkylaryl polyglycol ether To produce an appropriate active ingredient formulation, 1 part by weight of active ingredient is mixed with the specified amounts of solvent and emulsifier, and the concentrate is diluted with water to the desired concentration. To test for protective activity, young plants are sprayed with the formulation of active ingredient at the stated application rate. After the spray coating has dried on, the plants are dusted with spores of Blumeria graminis f sp. hordei. The plants are placed in a greenhouse at a temperature of about 18° C. and a relative air humidity of about 80% to promote the development of mildew pustules. Evaluation follows 7 days after the inoculation. 0% means an efficacy which corresponds to that of the control, whereas an efficacy of 100% means that no infection is observed. In this test, the following inventive compounds, at an active ingredient concentration of 500 ppm, show an efficacy of 70% or more.

Leptosphaeria nodorum = Leptosphaeria nodorum test (wheat)/protective; assay type: in vivo; details: protective spray, application rate 500 ppm, evaluation 8 days after inoculation, 0% = control, 100% = no infection
Protocol: (§1) Solvent: 49 parts by weight of N,N-dimethylacetamide
(§2) Emulsifier: 1 part by weight of alkylaryl polyglycol ether
(§3) To produce an appropriate active ingredient formulation, 1 part by weight of active ingredient is mixed with the specified amounts of solvent and emulsifier, and the concentrate is diluted with water to the desired concentration. To test for protective activity, young plants are sprayed with the formulation of active ingredient at the stated application rate. After the spray coating has dried on, the plants are sprayed with spores with a spore suspension of Leptosphaeria nodorum. The plants remain in an incubation cabin at 20° C. and 100% relative air humidity for 48 hours. The plants are placed in a greenhouse at a temperature of about 22° C. and a relative air humidity of about 80%. Evaluation follows 8 days after the inoculation. 0% means an efficacy which corresponds to that of the control, whereas an efficacy of 100% means that no infection is observed. In this test, the following inventive compounds, at an active ingredient concentration of 500 ppm, show an efficacy of 70% or more.

Puccinia triticina = Puccinia triticina test (wheat)/protective; assay type: in vivo; details: protective spray, application rate 500 ppm, evaluation 8 days after inoculation, 0% = control, 100% = no infection
Protocol: as §1, §2
as §3, with “Puccinia triticina.” for “Leptosphaeria nodorum.”, “20°” for “22°”

[2] = log P by HPLC on reversed-phase columns (C18), EEC Directive 79/831 Annex V.A8; assay type: physicochemical; details: method [a]: LC-MS, acidic range, pH 2.7, 0.1% aqueous formic acid / acetonitrile, gradient 10% to 95% acetonitrile
Protocol: The log P values were measured in accordance with EEC Directive 79/831 Annex V.A8 by HPLC (High Performance Liquid Chromatography) using reversed-phase columns (C18) by the following methods: [a] The LC-MS determination in the acidic range is effected at pH 2.7 with 0.1% aqueous formic acid and acetonitrile (contains 0.1% formic acid) as eluents; linear gradient from 10% acetonitrile to 95% acetonitrile.

Uromyces appendiculatus = assay: Uromyces test (bean)/protective; assay type: in vivo; details: protective spray, application rate 100 ppm, evaluation 10 days after inoculation, 0% = control, 100% = no infection
Protocol: (§4) Solvent: 24.5 parts by weight of acetone • 24.5 parts by weight of dimethylacetamide Emulsifier: 1 part by weight of alkylaryl polyglycol ether To produce an appropriate active ingredient formulation, 1 part by weight of active ingredient is mixed with the specified amounts of solvent and emulsifier, and the concentrate is diluted with water to the desired concentration. To test for protective activity, young plants are sprayed with the active ingredient formulation at the stated application rate. After the spray coating has dried on, the plants are inoculated with an aqueous spore suspension of the bean rust pathogen Uromyces appendiculatus and then remain in an incubation cabin at about 20° C. and 100% relative air humidity for 1 day. The plants are then placed in the greenhouse at about 21° C. and a relative air humidity of about 90%. Evaluation follows 10 days after the inoculation. 0% means an efficacy which corresponds to that of the control, whereas an efficacy of 100% means that no infection is observed. In this test, the following inventive compounds, at an active ingredient concentration of 100 ppm, show an efficacy of 70% or more.

Venturia inaequalis = assay: Venturia test (apple)/protective; assay type: in vivo; details: protective spray, application rate 100 ppm, evaluation 10 days after inoculation, 0% = control, 100% = no infection
Protocol: as §4, with “aqueous conidia” for “aqueous spore”, “the apple scab” for “the bean rust”, “pathogen Venturia inaequalis” for “pathogen Uromyces appendiculatus”, “in a” for “in the”

CC(C)(C)C(O)(COc1ccc(Br)cc1Cl)c1cncs1 (stereo not drawn) [Compound No. 2]
Efficacy (%) [1]: 100% | Efficacy (%) (Leptosphaeria nodorum): 92% | Efficacy (%) (Puccinia triticina): 95%

CC(C)(C)C(O)(COc1ccc(Br)cc1F)c1cncs1 (stereo not drawn) [Compound No. 3]
Efficacy (%) [1]: 100% | Efficacy (%) (Leptosphaeria nodorum): 100% | Efficacy (%) (Puccinia triticina): 100%

CC(C)(C)C(O)(Cc1ccc(F)cc1F)c1cncs1 (stereo not drawn) [Compound No. 31]
chromatographic logP ([2]; reversed-phase HPLC column (C18)): 3.04

CC(C)(C)C(O)(COc1ccc(I)cc1F)c1cncs1 (stereo not drawn) [compound 1]
Efficacy (%) [1]: 100% | Efficacy (%) (Leptosphaeria nodorum): 100% | Efficacy (%) (Puccinia triticina): 100% | Efficacy (%) (Uromyces appendiculatus): 100% | Efficacy (%) (Venturia inaequalis): 97%

CC(C)(C)C(O)(COc1ccc(I)cc1Cl)c1cncs1 (stereo not drawn) [compound 5]
logP [2]: logP 4.14^[a]; [M + H]^+ = 438.

CC1(C(O)(COc2cc(Br)cc(Br)c2)c2cncs2)CC1 (stereo not drawn) [compound 7]
logP [2]: logP 4.03^[a]; [M + H]^+ = 434

Cc1cc(I)ccc1OCC(O)(c1cncs1)C1(C)CC1 (stereo not drawn) [compound 10]
logP [2]: logP 3.88^[a]; [M + H]^+ = 416

CC1(C(O)(COc2ccc(Br)c(F)c2)c2cncs2)CC1 (stereo not drawn) [compound 12]
logP [2]: logP 3.30^[a]; [M + H]^+ = 372, 374

CC1(C(O)(COc2ccc(Br)c(C(F)(F)F)c2)c2cncs2)CC1 (stereo not drawn) [compound 13]
logP [2]: logP 3.70^[a]; [M + H]^+ = 422, 424

COc1cc(OC(F)(F)F)ccc1OCC(O)(c1cncs1)C(C)(C)C (stereo not drawn) [compound 14]
logP [2]: logP 3.70^[a]; [M + H]^+ = 392.

CC1(C(O)(COc2ccc(I)c([N+](=O)[O-])c2)c2cncs2)CC1 (stereo not drawn) [compound 15]
logP [2]: logP 3.11^[a]; [M + H]^+ = 447

CC(C)(C)C(O)(COc1ccc(SC(F)(F)F)c(F)c1)c1cncs1 (stereo not drawn) [compound 16]
logP [2]: logP 3.96^[a]; [M + H]^+ = 396.

Cc1cc(OCC(O)(c2cncs2)C(C)(C)C)ccc1S(C)(=O)=O (stereo not drawn) [compound 17]
logP [2]: logP 2.21^[a]; [M + H]^+ = 370.

Cc1cc(OCC(O)(c2cncs2)C(C)(C)C)ccc1[S+](C)[O-] (stereo not drawn) [compound 18]
logP [2]: logP 1.90^[a]; [M + H]^+ = 354.

Cc1cc(S(=O)(=O)C(F)(F)F)ccc1OCC(O)(c1cncs1)C(C)(C)C (stereo not drawn) [compound 19]
logP [2]: logP 3.63^[a]; [M + H]^+ = 424.

COc1cc(S(=O)(=O)C(F)(F)F)ccc1OCC(O)(c1cncs1)C(C)(C)C (stereo not drawn) [compound 20]
logP [2]: logP 3.37^[a]; [M + H]^+ = 440.

CC(C)(C)C(O)(COc1ccc(SC(F)(F)F)c(Cl)c1)c1cncs1 (stereo not drawn) [compound 21]
logP [2]: logP 4.31^[a]; [M + H]^+ = 412.

Cc1cc(OCC(O)(c2cncs2)C(C)(C)C)ccc1SC(F)(F)F (stereo not drawn) [compound 22]
logP [2]: logP 4.35^[a]; [M + H]^+ = 392.

Cc1cc(SC(F)(F)F)ccc1OCC(O)(c1cncs1)C(C)(C)C (stereo not drawn) [compound 23]
logP [2]: logP 4.43^[a]; [M + H]^+ = 392.

CC(C)(C)C(O)(COc1ccc(OC(F)(F)F)c(Cl)c1)c1cncs1 (stereo not drawn) [compound 24]
logP [2]: logP 4.02^[a]; [M + H]^+ = 396.

Cc1cc(Cl)ccc1OCC(O)(c1cncs1)C(C)(C)C (stereo not drawn) [compound 25]
logP [2]: logP 3.77^[a]; [M + H]^+ = 326.

CC(C)(C)C(O)(COc1ccc(Cl)cc1F)c1cncs1 (stereo not drawn) [compound 26]
logP [2]: logP 3.37^[a]; [M + H]^+ = 330.

Cc1cc(OCC(O)(c2cncs2)C(C)(C)C)ccc1Cl (stereo not drawn) [compound 27]
logP [2]: logP 3.74^[a]; [M + H]^+ = 326.

CSc1ccc(OCC(O)(c2cncs2)C(C)(C)C)cc1C (stereo not drawn) [compound 28]
logP [2]: logP 3.63^[a]; [M + H]^+ = 338.

CC(C)(C)C(O)(COc1ccc(OC(F)(F)F)cc1Cl)c1cncs1 (stereo not drawn) [compound 29]
logP [2]: logP 4.10^[a]; [M + H]^+ = 396.

CC1(C(O)(COc2ccc(Br)cc2F)c2cncs2)CC1 (stereo not drawn) [compound 32]
logP [2]: logP 3.32^[a]; [M + H]+ = 372, 374

CC(C)(C)C(O)(COc1ccc(Cl)cc1Cl)c1cncs1 (stereo not drawn) [compound 33]
logP [2]: logP 3.84^[a]

CC(C)(C)C(O)(COc1ccc(F)cc1F)c1cncs1 (stereo not drawn) [compound 34]
logP [2]: logP 2.98^[a]

COc1cc(Br)ccc1OCC(O)(c1cncs1)C1(C)CC1 (stereo not drawn) [compound 35]
logP [2]: logP 3.26^[a]

COc1cc(OCC(O)(c2cncs2)C2(C)CC2)ccc1Br (stereo not drawn) [compound 36]
logP [2]: logP 3.16^[a]

CC(C)(C)C(O)(COc1ccc(Cl)cc1C(F)(F)F)c1cncs1 (stereo not drawn) [compound 37]
logP [2]: logP 3.96^[a]

CC(C)(C)C(O)(COc1ccc(Cl)c(Cl)c1)c1cncs1 (stereo not drawn) [compound 39]
logP [2]: logP 3.72^[a]

CC(C)(C)C(O)(COc1ccc(OC(F)(F)F)c(Br)c1)c1cncs1 (stereo not drawn) [compound 41]
logP [2]: logP 4.12^[a]

Cc1cc(OC(F)(F)F)ccc1OCC(O)(c1cncs1)C(C)(C)C (stereo not drawn) [compound 42]
logP [2]: logP 4.12^[a]
